Results published in article PMC6703555 (Journal of medicinal chemistry, 2018).

Columns and labels:
Vγ9Vδ2 T cells = conditions: 72 hour compound exposure, PBMCs; cited from earlier work
B30.2 domain of BTN3A1 = conditions: ITC; cited from earlier work
cancer cells = conditions: 2 hour exposure; cited from earlier work
[1] = human plasma
in vitro = conditions: human, plasma, pH 7.5, half-life, 50% pooled human plasma in PBS

SMILES	EC50 (Vγ9Vδ2 T cells) [nM]	binding to the B30.2 domain of BTN3A1 (B30.2 domain of BTN3A1)	EC50 (cancer cells) [nM]	hydrolysis after two hours [1]	half-life (in vitro) [min]
C/C(=C\CCP(=O)([O-])[O-])CO.[Na+].[Na+] [Compound 10]	4000	does bind	–	–	–
C/C(=C\COP(=O)(O)OP(=O)(O)O)CO [HMBPP, (E)-4-hydroxy-3-methyl-but-2-enyl diphosphate]	–	–	19	–	–
COP(=O)(CC/C=C(\C)CO)OC [Compound 11]	> 10000	–	–	–	–
C/C(=C\CCP(=O)(OCOC(=O)C(C)(C)C)OCOC(=O)C(C)(C)C)CO [Compound 2]	–	–	1.2	more than 95%	~8
